Assay results as given in the NIST ThermoML archive (doi:10.1016/j.jct.2004.07.024).

Assay: xn = mol fraction of the nth substance listed
Conditions: 101.33 kPa, Liquid

C[S+](C)[O-] [dimethyl sulfoxide] + Cc1ccccc1
Conditions	mass density [kg/m3]
293.15 K, x2 = 0.0689	1077.87
293.15 K, x2 = 0.1505	1053.27
293.15 K, x2 = 0.2269	1031.56
293.15 K, x2 = 0.3036	1010.99
293.15 K, x2 = 0.3758	992.64
293.15 K, x2 = 0.4568	973.24
293.15 K, x2 = 0.5177	959.33
293.15 K, x2 = 0.5769	946.41
293.15 K, x2 = 0.6342	934.37
293.15 K, x2 = 0.6885	923.31
293.15 K, x2 = 0.7512	911.04
293.15 K, x2 = 0.8181	898.38
293.15 K, x2 = 0.8856	886.05
293.15 K, x2 = 0.9553	873.71
303.15 K, x2 = 0.0652	1069.85
303.15 K, x2 = 0.1295	1050.38
303.15 K, x2 = 0.1806	1035.51
303.15 K, x2 = 0.2563	1014.57
303.15 K, x2 = 0.3098	1000.5
303.15 K, x2 = 0.3845	981.74
303.15 K, x2 = 0.4456	967.18
303.15 K, x2 = 0.5169	950.98
303.15 K, x2 = 0.5813	937.04
303.15 K, x2 = 0.6645	919.88
303.15 K, x2 = 0.7499	903.18
303.15 K, x2 = 0.8114	891.64
303.15 K, x2 = 0.8802	879.15
303.15 K, x2 = 0.9532	866.39
313.15 K, x2 = 0.0661	1059.41
313.15 K, x2 = 0.1202	1043.16
313.15 K, x2 = 0.1891	1023.36
313.15 K, x2 = 0.2403	1009.32
313.15 K, x2 = 0.2945	995.06
313.15 K, x2 = 0.3615	978.24
313.15 K, x2 = 0.4369	960.28
313.15 K, x2 = 0.5156	942.59
313.15 K, x2 = 0.5813	928.56
313.15 K, x2 = 0.6558	913.41
313.15 K, x2 = 0.7267	899.63
313.15 K, x2 = 0.7956	886.78
313.15 K, x2 = 0.8821	871.32
313.15 K, x2 = 0.9448	860.52
323.15 K, x2 = 0.0884	1042.41
323.15 K, x2 = 0.1236	1032.08
323.15 K, x2 = 0.1869	1014.1
323.15 K, x2 = 0.2536	996.08
323.15 K, x2 = 0.3285	976.94
323.15 K, x2 = 0.3996	959.75
323.15 K, x2 = 0.4501	948.11
323.15 K, x2 = 0.4969	937.7
323.15 K, x2 = 0.5563	925
323.15 K, x2 = 0.616	912.74
323.15 K, x2 = 0.6725	901.61
323.15 K, x2 = 0.7562	885.79
323.15 K, x2 = 0.8532	868.42
323.15 K, x2 = 0.9458	852.63
333.15 K, x2 = 0.0598	1040.93
333.15 K, x2 = 0.1436	1016.4
333.15 K, x2 = 0.2258	993.84
333.15 K, x2 = 0.2931	976.44
333.15 K, x2 = 0.3652	958.78
333.15 K, x2 = 0.4112	948.06
333.15 K, x2 = 0.4859	931.36
333.15 K, x2 = 0.5301	921.94
333.15 K, x2 = 0.5965	908.31
333.15 K, x2 = 0.6789	892.24
333.15 K, x2 = 0.7215	884.23
333.15 K, x2 = 0.7899	871.86
333.15 K, x2 = 0.8512	861.15
333.15 K, x2 = 0.9503	844.53
343.15 K, x2 = 0.0599	1030.68
343.15 K, x2 = 0.1102	1015.93
343.15 K, x2 = 0.1798	996.46
343.15 K, x2 = 0.2549	976.61
343.15 K, x2 = 0.3169	961.13
343.15 K, x2 = 0.3858	944.75
343.15 K, x2 = 0.4405	932.38
343.15 K, x2 = 0.5258	914.08
343.15 K, x2 = 0.5936	900.34
343.15 K, x2 = 0.6678	886.01
343.15 K, x2 = 0.7166	876.96
343.15 K, x2 = 0.7925	863.42
343.15 K, x2 = 0.8792	848.65
343.15 K, x2 = 0.9552	836.24
353.15 K, x2 = 0.0801	1014.55
353.15 K, x2 = 0.1526	994.06
353.15 K, x2 = 0.2215	975.63
353.15 K, x2 = 0.2869	959.04
353.15 K, x2 = 0.3568	942.26
353.15 K, x2 = 0.4205	927.79
353.15 K, x2 = 0.4956	911.6
353.15 K, x2 = 0.5723	895.96
353.15 K, x2 = 0.6321	884.4
353.15 K, x2 = 0.7058	870.71
353.15 K, x2 = 0.768	859.69
353.15 K, x2 = 0.8363	848.04
353.15 K, x2 = 0.8913	838.96
353.15 K, x2 = 0.9524	829.17
